In PMC4278837, “A Cyclic Peptidic Serine Protease Inhibitor: Increasing Affinity by Increasing Peptide Flexibility” (PLoS ONE, 2014):
Like-named read-outs stand apart in the source and are kept apart here. One block for each compound: values may come before it. Bridge positions count the residues as written; N and C are the ends. Square brackets hold non-standard residues; d marks the D form. Peptide text beside a SMILES is read from it. Phe(4-guanidino) = N=C(N)Nc1ccc(C[C@H](N)C(=O)O)cc1

Key:
huPA-H99Y R35A = target: T1, huPA-H99Y R35A (Homo sapiens, UniProt P00749, H272Y/R198A); assay: Ki for inhibition of huPA-H99Y-R35A, chromogenic substrate; type: biochemical
T1 construct: To ensure that the uPAs purified from the conditioned media were completely in the two-chain form, they were treated with plasmin; hexa-His (C); made in house; host or cells: HEK293 6E suspension cells
Description: (§1) Determination of Ki values
(§2) The initial reaction velocities were monitored at an absorbance of 405 nm. The inhibition constants (K i) were subsequently determined from the non-linear regression analyses of plots for V i/V o versus [I]0, using Equation 2, derived under assumption of competitive inhibition:
(§3) [drawing 2] (2) where V i and V 0 are the reaction velocities in the presence and absence of inhibitor, respectively; [S]0 and [I]0 are the substrate and inhibitor concentrations, respectively; K M is K M for substrate hydrolysis by each protease. In Equation 2, it is assumed that [S]free ≈ [S]0 and [I]free ≈ [I]0.

huPA-H99Y V41A = target: T2, huPA-H99Y V41A (Homo sapiens, UniProt P00749, H272Y/V208A); assay: Ki for inhibition of huPA-H99Y-V41A, chromogenic substrate; type: biochemical
T2 construct: To ensure that the uPAs purified from the conditioned media were completely in the two-chain form, they were treated with plasmin; hexa-His (C); made in house; host or cells: HEK293 6E suspension cells
Description: as §1, §2, §3

huPA-H99Y K143A = target: T3, huPA-H99Y K143A (Homo sapiens, UniProt P00749, H272Y/K320A); assay: Ki for inhibition of huPA-H99Y-K143A, chromogenic substrate; type: biochemical
T3 construct: To ensure that the uPAs purified from the conditioned media were completely in the two-chain form, they were treated with plasmin; hexa-His (C); made in house; host or cells: HEK293 6E suspension cells
Description: as §1, §2, §3

muPA K41A = target: T4, muPA K41A (Mus musculus, UniProt P06869, K210A); assay: Ki for inhibition of muPA-K41A, chromogenic substrate; type: biochemical, murine
T4 construct: To ensure that the uPAs purified from the conditioned media were completely in the two-chain form, they were treated with plasmin; hexa-His (C); made in house; host or cells: HEK293 6E suspension cells
T4 sequence (P06869 180-433 K210A): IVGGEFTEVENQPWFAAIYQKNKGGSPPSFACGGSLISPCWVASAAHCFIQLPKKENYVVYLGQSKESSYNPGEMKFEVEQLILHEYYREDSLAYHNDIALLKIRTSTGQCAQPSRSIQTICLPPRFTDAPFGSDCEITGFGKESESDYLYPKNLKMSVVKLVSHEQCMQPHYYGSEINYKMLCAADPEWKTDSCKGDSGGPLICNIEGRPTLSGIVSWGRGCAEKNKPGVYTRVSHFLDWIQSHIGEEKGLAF
T4 sequence (P06869 21-178 partner limits assumed): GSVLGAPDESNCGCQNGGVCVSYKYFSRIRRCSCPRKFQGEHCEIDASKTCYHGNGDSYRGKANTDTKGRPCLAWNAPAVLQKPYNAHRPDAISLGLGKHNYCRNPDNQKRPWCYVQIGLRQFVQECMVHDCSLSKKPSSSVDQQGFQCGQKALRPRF
Description: as §1, §2, §3

muPA Y99A = target: T5, muPA Y99A (Mus musculus, UniProt P06869, Y274A); assay: Ki for inhibition of muPA-Y99A, chromogenic substrate; type: biochemical, murine
T5 construct: To ensure that the uPAs purified from the conditioned media were completely in the two-chain form, they were treated with plasmin; hexa-His (C); made in house; host or cells: HEK293 6E suspension cells
T5 sequence (P06869 180-433 Y274A): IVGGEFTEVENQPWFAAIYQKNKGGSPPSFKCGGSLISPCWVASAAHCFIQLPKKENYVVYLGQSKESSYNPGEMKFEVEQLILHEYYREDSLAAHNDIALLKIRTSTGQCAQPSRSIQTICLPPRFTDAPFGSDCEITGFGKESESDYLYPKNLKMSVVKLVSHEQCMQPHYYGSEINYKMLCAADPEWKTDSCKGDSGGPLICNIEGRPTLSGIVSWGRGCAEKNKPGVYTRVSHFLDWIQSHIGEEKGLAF
T5 sequence (P06869 21-178 partner limits assumed): as the sequence (P06869 21-178 partner limits assumed) above
Description: as §1, §2, §3

muPA K143A = target: T6, muPA K143A (Mus musculus, UniProt P06869, K322A); assay: Ki for inhibition of muPA-K143A, chromogenic substrate; type: biochemical, murine; conditions: means ± S.D.; read-out: K i for inhibition of muPA-K143A
T6 construct: To ensure that the uPAs purified from the conditioned media were completely in the two-chain form, they were treated with plasmin; hexa-His (C); made in house; host or cells: HEK293 6E suspension cells
T6 sequence (P06869 180-433 K322A): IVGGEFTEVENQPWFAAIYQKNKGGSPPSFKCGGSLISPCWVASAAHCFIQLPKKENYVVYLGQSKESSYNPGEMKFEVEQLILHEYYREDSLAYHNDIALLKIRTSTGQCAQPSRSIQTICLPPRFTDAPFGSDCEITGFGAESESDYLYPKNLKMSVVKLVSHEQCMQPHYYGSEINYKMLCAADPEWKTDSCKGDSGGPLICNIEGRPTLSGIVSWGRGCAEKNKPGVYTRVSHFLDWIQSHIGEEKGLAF
T6 sequence (P06869 21-178 partner limits assumed): as the sequence (P06869 21-178 partner limits assumed) above
Description: as §1, §2, §3

muPA S190A = target: T7, muPA S190A (Mus musculus, UniProt P06869, S373A); assay: Ki for inhibition of muPA-S190A, chromogenic substrate; type: biochemical, murine
T7 construct: To ensure that the uPAs purified from the conditioned media were completely in the two-chain form, they were treated with plasmin; hexa-His (C); made in house; host or cells: HEK293 6E suspension cells
T7 sequence (P06869 180-433 S373A): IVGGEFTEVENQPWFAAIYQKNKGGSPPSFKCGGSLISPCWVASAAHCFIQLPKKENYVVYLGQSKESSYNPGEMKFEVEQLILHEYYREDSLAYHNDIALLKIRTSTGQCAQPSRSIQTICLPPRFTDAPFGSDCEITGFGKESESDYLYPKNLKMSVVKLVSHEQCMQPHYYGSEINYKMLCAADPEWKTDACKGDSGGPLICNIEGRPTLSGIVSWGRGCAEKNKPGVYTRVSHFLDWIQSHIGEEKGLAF
T7 sequence (P06869 21-178 partner limits assumed): as the sequence (P06869 21-178 partner limits assumed) above
Description: as §1, §2, §3

muPA V213T = target: T8, muPA V213T (Mus musculus, UniProt P06869, V396T); assay: Ki for inhibition of muPA-V213T, chromogenic substrate; type: biochemical, murine
T8 construct: To ensure that the uPAs purified from the conditioned media were completely in the two-chain form, they were treated with plasmin; hexa-His (C); made in house; host or cells: HEK293 6E suspension cells
T8 sequence (P06869 180-433 V396T): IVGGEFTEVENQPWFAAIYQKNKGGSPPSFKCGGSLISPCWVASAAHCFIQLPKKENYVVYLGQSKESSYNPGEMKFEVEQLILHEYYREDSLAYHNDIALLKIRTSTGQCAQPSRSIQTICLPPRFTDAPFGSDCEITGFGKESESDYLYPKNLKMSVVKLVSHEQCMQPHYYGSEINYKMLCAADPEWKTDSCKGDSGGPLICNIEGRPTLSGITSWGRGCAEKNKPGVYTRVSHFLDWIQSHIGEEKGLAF
T8 sequence (P06869 21-178 partner limits assumed): as the sequence (P06869 21-178 partner limits assumed) above
Description: as §1, §2, §3

huPA-H99Y [1] = target: T9, huPA-H99Y (Homo sapiens, UniProt P00749, H272Y); assay: Surface plasmon resonance analysis of peptide binding to huPA-H99Y; conditions: SPR
T9 construct: To ensure that the uPAs purified from the conditioned media were completely in the two-chain form, they were treated with plasmin; hexa-His (C); made in house; host or cells: HEK293 6E suspension cells
Experimental: (§4) Surface plasmon resonance (SPR) analysis
(§5) To determine the equilibrium binding constants (KD), the association rate constants (kon) and dissociation rate constants (koff) for peptide binding to uPA, surface plasmon resonance analysis was performed on a Biacore T200 instrument (Biacore, Uppsala, Sweden). A CM5 chip was coupled with the uPA variant (muPA or huPAH99Y) to be analysed, by injecting a concentration of 30 µg/mL uPA in immobilization buffer (10 mM sodium acetate, pH 5.0), aiming for an immobilised level of approximately 500 response units (RU). Immobilisation was followed by surface blocking with ethanolamine. A reference cell was prepared in the same way, without coupling of uPA. Mupain-1 variants in HBS with 0.1% BSA, in a dilution series, were injected at a flow rate of 30 µL per min during 60 s at 25°C. Subsequently, the dissociation was monitored during 600 s. Kinetic constants (k on and k off) were calculated with the Biacore Evaluation Software, using the 1∶1 kinetic fit. The K D values were calculated as k off /k on.

muPA = target: T10, muPA (Mus musculus, UniProt P06869); assay: Surface plasmon resonance analysis of peptide binding to muPA; set-up: species or system murine; conditions: SPR, 25°C, pH 7.4
T10 construct: To ensure that the uPAs purified from the conditioned media were completely in the two-chain form, they were treated with plasmin; hexa-His (C); made in house; host or cells: HEK293 6E suspension cells
T10 sequence (P06869 180-433 limits assumed): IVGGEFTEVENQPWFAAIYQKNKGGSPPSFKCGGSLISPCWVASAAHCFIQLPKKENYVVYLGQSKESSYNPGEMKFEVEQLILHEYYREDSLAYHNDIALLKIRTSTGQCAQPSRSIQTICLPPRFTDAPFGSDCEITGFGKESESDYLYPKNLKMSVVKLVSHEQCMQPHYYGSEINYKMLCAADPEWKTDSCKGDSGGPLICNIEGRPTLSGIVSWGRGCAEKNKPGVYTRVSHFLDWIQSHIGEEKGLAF
T10 sequence (P06869 21-178 partner limits assumed): as the sequence (P06869 21-178 partner limits assumed) above
Experimental: as §4, §5

huPA-H99Y [2] = target: T11, huPA-H99Y (Homo sapiens, UniProt P00749, C299A/H272Y/N322Q); assay: Isothermal titration calorimetry for binding to huPA-H99Y catalytic domain; conditions: ITC, 25°C, pH 7.4
T11 construct: recombinant uPA catalytic domain (residues 159–411), harbouring a H99Y mutation; made in house; host or cells: Pichia pastoris X-33 (secreted)
Experimental: For these experiments, we used the catalytic domain of huPA-H99Y expressed in and purified from Pichia pastoris strain X-33 (see above). The protein was dissolved in and dialysed against a buffer of 20 mM sodium phosphate, pH 7.4, 140 mM NaCl. The protein concentration was determined by absorbance at 280 nm, using an extinction coefficient of 43810 M^−1cm^−1. The peptides were dissolved in the above-mentioned buffer. All isothermal titration calorimetry experiments were performed with a MicroCal^TM ITC200 instrument equilibrated to a temperature of 25°C (298oK). The concentration of uPA-H99Y catalytic domain used in the 200 µl sample cell was 5–50 µM, depending on the affinity of the ligand. Titrations were performed by injecting 2 µl of the ligand until the total syringe volume of 40 µl was spent. Titration of ligand into buffer was performed to obtain buffer correction. The equilibrium association constant KA and the reaction enthalpy ΔH were calculated by fitting the integrated titration peaks using a one-binding-site model in the ITC ORIGIN7 programme package. The following formulas for Gibbs free energy ΔG were used to analyse the measured energies
[drawing 4] (4) where R is the gas constant and T the absolute temperature. ΔS, the entropic change during the reaction, was calculated using equations 3 and 4 and the measured K A and ΔH values.

huPA-H99Y [3] = target: T9, huPA-H99Y; conditions: 37°C; means ± S.D.; starred values reproduced from previous publications; ref Andersen et al., 2008; Hosseini et al., 2011; read-out: K i for inhibition of huPA-H99Y; cited from earlier work
muPA wt [4] = target: T12, muPA wt (Mus musculus, UniProt P06869); conditions: introduction; read-out: K i value for inhibition of muPA; cited from earlier work
T12 construct: To ensure that the uPAs purified from the conditioned media were completely in the two-chain form, they were treated with plasmin; hexa-His (C); made in house; host or cells: HEK293 6E suspension cells
T12 sequence (P06869 180-433 limits assumed): as the sequence (P06869 180-433 limits assumed) above
T12 sequence (P06869 21-178 partner limits assumed): as the sequence (P06869 21-178 partner limits assumed) above

huPA-H99Y Q192A = huPA-H99Y Q192A (Homo sapiens, UniProt P00749, H272Y/Q373A); assay: Ki for inhibition of huPA-H99Y-Q192A, chromogenic substrate; type: biochemical; set-up: To ensure that the uPAs purified from the conditioned media were completely in the two-chain form, they were treated with plasmin; hexa-His (C); made in house; host or cells: HEK293 6E suspension cells
Description: as §1, §2, §3

huPA-H99Y [5] = target: T9, huPA-H99Y; assay: Ki for inhibition of huPA-H99Y, chromogenic substrate S-2444; type: biochemical; conditions: 37°C; means ± S.D.; read-out: K i for inhibition of huPA-H99Y
Description: as §1, §2, §3

muPA wt [6] = target: T12, muPA wt; assay: Ki for inhibition of muPA wt, chromogenic substrate; type: biochemical, murine; conditions: means ± S.D.; read-out: K i for inhibition of muPA wt
Description: as §1, §2, §3

SMILES: CC(=O)N[C@H]1CSSC[C@@H](C(N)=O)NC(=O)[C@H](CC(=O)O)NC(=O)[C@H](CC(C)C)NC(=O)[C@H](Cc2ccc(O)cc2)NC(=O)[C@H](CCCNC(=N)N)NC(=O)[C@H](CO)NC(=O)[C@H](Cc2ccc(O)cc2)NC(=O)[C@H](C)NC(=O)[C@@H]2CCCN2C1=O [Mupain-1, CPAYSRYLDC] (Ac-CPAYSRYLDC-NH2; disulfide 1-10)
Ki (huPA-H99Y R35A): 39.5 ± 2.9 µM
Ki (huPA-H99Y V41A): 32.4 ± 5.3 µM
Ki (huPA-H99Y K143A): 56.6 ± 8 µM
Ki (muPA K41A): 4290 ± 150 nM
Ki (muPA Y99A): 26 ± 5.8 µM
Ki (muPA K143A): 4880 ± 350 nM
Ki (muPA S190A): 1600 ± 530 nM
Ki (muPA V213T): 246 ± 44 nM
Kd (huPA-H99Y [1]; K D, huPA-H99Y, 25°C, pH 7.4, calculated as k off/k on): 14.1 ± 2.4 µM
Kd (huPA-H99Y [1]; KD of fitted curve, representative sensorgram, huPA-H99Y immobilized on CM5 chip, single example (S3 Fig)): 15.8 µM
k off, huPA-H99Y (huPA-H99Y [1]; 25°C, pH 7.4): 80.2±7.6 (4) s^-1, ×10^2
k on, huPA-H99Y (huPA-H99Y [1]; 25°C, pH 7.4): 0.569±0.103 (4) M^-1s^-1, ×10^-5
koff (huPA-H99Y [1]; huPA-H99Y immobilized on CM5 chip, single example (S3 Fig), read-out: koff of fitted curve, representative sensorgram): 0.803 s⁻¹
kon (huPA-H99Y [1]; huPA-H99Y immobilized on CM5 chip, single example (S3 Fig), read-out: kon of fitted curve, representative sensorgram): 50900 M⁻¹ s⁻¹
k off, muPA (muPA): 3.64±1.03 (6) s^−1, ×10^2
k on, muPA (muPA): 0.914±0.250 (6) M^−1s^−1, ×10^−5
Kd (huPA-H99Y [2]): 5040 ± 1610 nM
Ki (huPA-H99Y [3]): 15.3 ± 2 µM
Ki (muPA wt [4]): ~500 nM
Ki (huPA-H99Y Q192A): 33.2 ± 4.2 µM

Ki (huPA-H99Y [5]): 186 ± 36 nM
Ki (huPA-H99Y R35A; 37°C, means ± S.D., read-out: K i for inhibition of huPA-H99Y-R35A): 0.231 ± 0.078 µM
Ki (huPA-H99Y V41A; 37°C, means ± S.D., read-out: K i for inhibition of huPA-H99Y-V41A): 0.478 ± 0.137 µM
Ki (muPA wt [6]): 190 ± 10 nM
Ki (muPA K41A; means ± S.D., read-out: K i for inhibition of muPA-K41A): 91 ± 7 nM
Ki (muPA Y99A; means ± S.D., read-out: K i for inhibition of muPA-Y99A): 5.89 ± 1.31 µM
Ki (muPA K143A): 1000 ± 30 nM
Ki (muPA S190A; means ± S.D., read-out: K i for inhibition of muPA-S190A): 3520 ± 500 nM
Ki (muPA V213T; means ± S.D., read-out: K i for inhibition of muPA-V213T): 166 ± 75 nM
k off, huPA-H99Y (huPA-H99Y [1]; 25°C, pH 7.4): 7.94±0.39 (3) s^-1, ×10^2
k on, huPA-H99Y (huPA-H99Y [1]; 25°C, pH 7.4): 5.93±0.33 (3) M^-1s^-1, ×10^-5
Kd (huPA-H99Y [1]; 25°C, pH 7.4, calculated as k off/k on, read-out: K D, huPA-H99Y): 0.134 ± 0.002 µM
k off, muPA (muPA): 3.94±0.30 (3) s^−1, ×10^2
k on, muPA (muPA): 2.42±1.01 (3) M^−1s^−1, ×10^−5
Kd (muPA; calculated as k off/k on, read-out: K D, muPA): 177 ± 51 nM
Kd (huPA-H99Y [2]): 138 ± 47 nM
N (huPA-H99Y [2]): 0.88±0.01 (3)
TΔS (huPA-H99Y [2]): −18.9±5.1 (3) ^1 kJ/mole
ΔG (huPA-H99Y [2]): −39.2±0.8 (3) ^1 kJ/mole
ΔH (huPA-H99Y [2]): −60.1±5.4 (3) ^1 kJ/mole
Ki (huPA-H99Y Q192A; 37°C, means ± S.D., read-out: K i for inhibition of huPA-H99Y-Q192A): 0.438 ± 0.079 µM
SMILES: CC(=O)N[C@H]1CSSC[C@@H](C(N)=O)NC(=O)[C@H](C)NC(=O)[C@H](CC(C)C)NC(=O)[C@H](Cc2ccc(O)cc2)NC(=O)[C@H](Cc2ccc(NC(=N)N)cc2)NC(=O)[C@H](CO)NC(=O)[C@H](Cc2ccc(O)cc2)NC(=O)[C@H](C)NC(=O)[C@@H]2CCCN2C1=O [Mupain-1-12 D9A, CPAYS[4-guanidino-phenyl-alanine]YLAC] (Ac-CPAYS[Phe(4-guanidino)]YLAC-NH2; disulfide 1-10; N-terminus assumed)
